According to ChEMBL document CHEMBL5465560, “Selectivity Literature for EUbOPEN Chemogenomic Library” (2024):
Values belong to the molecule of their own block, whether it stands above or below them.

Assays:
[1] = target: Myosin light chain kinase, smooth muscle (Homo sapiens, UniProt Q15746); test: Selectivity interaction (KinomeScan (DiscoverX)) EUB0000618a MYLK; conditions: at 10 µM
[2] = target: Ribosomal protein S6 kinase alpha-5 (Homo sapiens) (UniProt O75582); test: Selectivity interaction (SelectScreen profiling (Invitrogen)) EUB0000607a RPS6KA5; conditions: at 2 µM
[3] = target: T1, Eukaryotic elongation factor 2 kinase (Homo sapiens) (UniProt O00418); test: Selectivity interaction (ActivX KiNativ screen (ex vivo kinase selectivity in human PBMCs)) EUB0001619a EEF2K; format: cell-based; conditions: PBMC, at 1 µM
T1 sequence (whole entry): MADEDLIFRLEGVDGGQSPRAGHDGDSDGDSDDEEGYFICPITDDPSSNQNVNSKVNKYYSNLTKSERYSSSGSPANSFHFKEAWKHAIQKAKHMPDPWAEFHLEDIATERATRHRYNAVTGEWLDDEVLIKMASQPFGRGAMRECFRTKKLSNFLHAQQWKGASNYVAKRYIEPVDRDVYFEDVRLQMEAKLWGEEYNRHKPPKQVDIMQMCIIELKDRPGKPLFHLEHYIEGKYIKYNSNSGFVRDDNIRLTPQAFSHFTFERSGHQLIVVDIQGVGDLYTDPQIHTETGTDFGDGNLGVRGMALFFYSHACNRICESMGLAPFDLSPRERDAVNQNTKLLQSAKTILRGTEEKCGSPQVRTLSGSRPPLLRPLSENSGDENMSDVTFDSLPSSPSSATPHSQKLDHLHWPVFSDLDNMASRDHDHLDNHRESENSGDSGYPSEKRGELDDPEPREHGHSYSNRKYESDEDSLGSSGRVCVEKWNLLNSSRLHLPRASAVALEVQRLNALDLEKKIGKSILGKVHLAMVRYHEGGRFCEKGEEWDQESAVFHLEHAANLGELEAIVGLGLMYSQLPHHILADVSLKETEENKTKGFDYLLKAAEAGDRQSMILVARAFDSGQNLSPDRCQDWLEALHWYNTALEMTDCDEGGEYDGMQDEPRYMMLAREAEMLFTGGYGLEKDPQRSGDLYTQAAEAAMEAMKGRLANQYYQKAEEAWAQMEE

[4] = target: Phosphatidylinositol 4-phosphate 3-kinase C2 domain-containing subunit alpha (Homo sapiens) (UniProt O00443); test: Selectivity interaction (Kinase panel (Invitrogen)) EUB0000639a PIK3C2A; conditions: at 200 nM
[5] = target: Serine/threonine-protein kinase 10 (Homo sapiens) (UniProt O94804); test: Selectivity interaction (ActivX KiNativ screen (kinase selectivity in THP-1 cell lysates)) EUB0000639a STK10; format: subcellular; conditions: lysate, at 0.04 µM
[6] = target: T2, Bromodomain-containing protein 1 (Homo sapiens) (UniProt O95696); test: Selectivity interaction (Bromodomain panel (DSF asssay)) EUB0000270b BRD1
T2 sequence (whole entry): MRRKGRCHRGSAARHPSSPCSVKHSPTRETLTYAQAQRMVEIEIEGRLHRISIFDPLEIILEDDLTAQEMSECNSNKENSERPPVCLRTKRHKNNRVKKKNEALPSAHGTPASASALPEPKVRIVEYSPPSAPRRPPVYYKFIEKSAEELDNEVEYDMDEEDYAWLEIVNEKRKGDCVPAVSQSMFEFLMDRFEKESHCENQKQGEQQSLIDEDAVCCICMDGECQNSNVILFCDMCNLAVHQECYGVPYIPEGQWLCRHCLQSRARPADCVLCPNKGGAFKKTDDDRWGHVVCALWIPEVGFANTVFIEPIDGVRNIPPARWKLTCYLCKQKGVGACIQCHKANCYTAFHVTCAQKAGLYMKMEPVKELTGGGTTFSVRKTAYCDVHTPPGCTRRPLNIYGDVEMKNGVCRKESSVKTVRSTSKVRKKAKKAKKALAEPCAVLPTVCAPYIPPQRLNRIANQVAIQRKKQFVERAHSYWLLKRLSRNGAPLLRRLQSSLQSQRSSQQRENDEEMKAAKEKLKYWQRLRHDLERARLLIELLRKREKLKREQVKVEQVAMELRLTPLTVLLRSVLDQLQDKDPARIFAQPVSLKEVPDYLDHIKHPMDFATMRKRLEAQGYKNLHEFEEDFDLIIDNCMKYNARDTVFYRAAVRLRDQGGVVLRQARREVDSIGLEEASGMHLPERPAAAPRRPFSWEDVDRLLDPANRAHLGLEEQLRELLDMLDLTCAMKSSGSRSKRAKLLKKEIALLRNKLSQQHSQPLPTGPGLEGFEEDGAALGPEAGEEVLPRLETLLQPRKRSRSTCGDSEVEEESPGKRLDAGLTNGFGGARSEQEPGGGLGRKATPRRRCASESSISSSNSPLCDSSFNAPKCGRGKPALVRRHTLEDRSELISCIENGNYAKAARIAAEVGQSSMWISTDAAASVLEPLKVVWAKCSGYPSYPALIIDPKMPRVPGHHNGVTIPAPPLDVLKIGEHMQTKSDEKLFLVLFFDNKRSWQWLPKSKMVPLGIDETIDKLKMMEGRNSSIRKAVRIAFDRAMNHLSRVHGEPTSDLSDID

[7] = target: Mitotic checkpoint serine/threonine-protein kinase BUB1 beta (Homo sapiens) (UniProt O60566); test: Selectivity interaction (ProQinase) EUB0000171b BUB1B
[8] = target: Cyclin-dependent kinase 16 (Homo sapiens) (UniProt Q00536); test: Selectivity interaction (KinomeScan (DiscoverX)) EUB0000666a CDK16; conditions: at 10 µM
[9] = target: T3, Mitogen-activated protein kinase kinase kinase 3 (Homo sapiens) (UniProt Q99759); test: Selectivity interaction (LanthaScreen Eu Kinase Binding Assay) EUB0001632a MAP3K3; conditions: at 10 µM
T3 sequence (whole entry): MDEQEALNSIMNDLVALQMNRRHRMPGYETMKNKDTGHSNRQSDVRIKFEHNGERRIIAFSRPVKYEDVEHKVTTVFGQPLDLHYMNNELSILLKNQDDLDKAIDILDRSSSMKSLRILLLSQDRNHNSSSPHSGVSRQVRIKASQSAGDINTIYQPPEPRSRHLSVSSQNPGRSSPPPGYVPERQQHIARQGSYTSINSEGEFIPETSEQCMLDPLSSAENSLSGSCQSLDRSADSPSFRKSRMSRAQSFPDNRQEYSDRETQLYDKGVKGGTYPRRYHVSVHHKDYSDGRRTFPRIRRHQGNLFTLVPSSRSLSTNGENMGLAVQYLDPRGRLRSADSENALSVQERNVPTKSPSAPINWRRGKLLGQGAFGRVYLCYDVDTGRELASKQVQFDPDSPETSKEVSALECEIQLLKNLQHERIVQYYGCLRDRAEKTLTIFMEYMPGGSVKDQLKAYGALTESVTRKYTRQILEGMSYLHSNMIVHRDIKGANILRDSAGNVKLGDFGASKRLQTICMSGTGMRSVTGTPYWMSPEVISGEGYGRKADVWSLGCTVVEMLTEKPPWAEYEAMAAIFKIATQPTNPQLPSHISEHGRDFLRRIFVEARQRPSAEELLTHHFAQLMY

Mitotic checkpoint serine/threonine-protein kinase BUB1 beta (Homo sapiens), sequence (O60566 whole entry): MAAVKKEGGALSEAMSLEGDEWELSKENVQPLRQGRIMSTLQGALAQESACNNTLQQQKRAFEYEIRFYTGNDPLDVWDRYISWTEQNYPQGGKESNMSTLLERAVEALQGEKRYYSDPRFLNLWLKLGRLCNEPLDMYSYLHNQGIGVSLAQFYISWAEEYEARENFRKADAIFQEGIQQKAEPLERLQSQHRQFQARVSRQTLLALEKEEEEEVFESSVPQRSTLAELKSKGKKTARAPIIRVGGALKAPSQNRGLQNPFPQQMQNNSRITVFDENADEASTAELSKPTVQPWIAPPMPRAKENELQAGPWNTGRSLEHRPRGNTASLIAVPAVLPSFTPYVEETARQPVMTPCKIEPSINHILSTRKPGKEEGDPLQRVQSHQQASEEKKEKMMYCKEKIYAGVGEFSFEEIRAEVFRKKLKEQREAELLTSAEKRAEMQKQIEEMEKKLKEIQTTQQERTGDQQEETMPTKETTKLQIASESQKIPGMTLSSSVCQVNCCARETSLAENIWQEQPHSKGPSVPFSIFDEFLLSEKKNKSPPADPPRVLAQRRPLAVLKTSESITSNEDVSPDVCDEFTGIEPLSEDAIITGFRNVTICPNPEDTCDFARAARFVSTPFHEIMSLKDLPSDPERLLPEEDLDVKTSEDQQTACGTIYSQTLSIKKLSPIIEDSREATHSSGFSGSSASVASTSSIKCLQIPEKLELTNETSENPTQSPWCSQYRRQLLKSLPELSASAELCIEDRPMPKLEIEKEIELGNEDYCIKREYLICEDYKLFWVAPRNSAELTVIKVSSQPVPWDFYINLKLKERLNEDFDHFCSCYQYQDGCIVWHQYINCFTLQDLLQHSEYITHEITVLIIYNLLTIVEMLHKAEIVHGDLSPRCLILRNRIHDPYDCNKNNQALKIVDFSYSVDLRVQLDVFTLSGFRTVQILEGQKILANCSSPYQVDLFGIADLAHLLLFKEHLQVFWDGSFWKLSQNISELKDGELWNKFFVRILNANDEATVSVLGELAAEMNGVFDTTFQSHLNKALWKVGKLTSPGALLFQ
Ribosomal protein S6 kinase alpha-5 (Homo sapiens), sequence (O75582 whole entry, looked up): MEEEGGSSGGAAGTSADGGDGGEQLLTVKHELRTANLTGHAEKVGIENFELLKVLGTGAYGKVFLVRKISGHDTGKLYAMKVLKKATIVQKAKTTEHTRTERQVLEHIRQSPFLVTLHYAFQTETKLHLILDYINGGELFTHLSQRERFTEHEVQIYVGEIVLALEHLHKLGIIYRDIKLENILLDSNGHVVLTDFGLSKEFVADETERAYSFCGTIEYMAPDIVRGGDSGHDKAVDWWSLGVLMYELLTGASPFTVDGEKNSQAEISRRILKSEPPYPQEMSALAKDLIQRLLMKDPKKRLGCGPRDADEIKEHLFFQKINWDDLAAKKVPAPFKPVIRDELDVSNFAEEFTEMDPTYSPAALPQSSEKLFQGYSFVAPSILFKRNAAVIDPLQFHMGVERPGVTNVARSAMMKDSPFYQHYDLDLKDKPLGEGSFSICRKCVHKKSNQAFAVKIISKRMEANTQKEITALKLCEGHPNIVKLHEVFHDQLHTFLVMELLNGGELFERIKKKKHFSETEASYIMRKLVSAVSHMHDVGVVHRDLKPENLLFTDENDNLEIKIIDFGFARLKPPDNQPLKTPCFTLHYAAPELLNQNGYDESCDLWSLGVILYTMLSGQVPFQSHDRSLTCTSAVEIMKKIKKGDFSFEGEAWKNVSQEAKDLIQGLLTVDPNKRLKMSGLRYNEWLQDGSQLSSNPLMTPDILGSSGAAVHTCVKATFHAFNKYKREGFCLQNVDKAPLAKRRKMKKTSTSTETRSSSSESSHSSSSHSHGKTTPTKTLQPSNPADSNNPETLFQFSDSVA
Cyclin-dependent kinase 16 (Homo sapiens), sequence (Q00536 whole entry): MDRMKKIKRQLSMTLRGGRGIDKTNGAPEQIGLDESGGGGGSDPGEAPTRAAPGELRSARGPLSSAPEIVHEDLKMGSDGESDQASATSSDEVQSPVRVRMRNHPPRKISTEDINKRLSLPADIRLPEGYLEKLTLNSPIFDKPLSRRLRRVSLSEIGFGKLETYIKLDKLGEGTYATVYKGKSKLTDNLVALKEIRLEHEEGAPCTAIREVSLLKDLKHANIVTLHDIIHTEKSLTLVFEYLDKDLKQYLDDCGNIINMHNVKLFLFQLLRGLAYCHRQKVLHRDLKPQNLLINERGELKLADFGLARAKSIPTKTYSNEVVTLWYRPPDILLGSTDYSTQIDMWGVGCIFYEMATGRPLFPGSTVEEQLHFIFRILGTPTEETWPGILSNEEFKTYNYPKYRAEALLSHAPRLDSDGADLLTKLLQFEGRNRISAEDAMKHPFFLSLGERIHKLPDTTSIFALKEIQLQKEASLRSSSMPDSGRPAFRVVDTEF
Serine/threonine-protein kinase 10 (Homo sapiens), sequence (O94804 whole entry, looked up): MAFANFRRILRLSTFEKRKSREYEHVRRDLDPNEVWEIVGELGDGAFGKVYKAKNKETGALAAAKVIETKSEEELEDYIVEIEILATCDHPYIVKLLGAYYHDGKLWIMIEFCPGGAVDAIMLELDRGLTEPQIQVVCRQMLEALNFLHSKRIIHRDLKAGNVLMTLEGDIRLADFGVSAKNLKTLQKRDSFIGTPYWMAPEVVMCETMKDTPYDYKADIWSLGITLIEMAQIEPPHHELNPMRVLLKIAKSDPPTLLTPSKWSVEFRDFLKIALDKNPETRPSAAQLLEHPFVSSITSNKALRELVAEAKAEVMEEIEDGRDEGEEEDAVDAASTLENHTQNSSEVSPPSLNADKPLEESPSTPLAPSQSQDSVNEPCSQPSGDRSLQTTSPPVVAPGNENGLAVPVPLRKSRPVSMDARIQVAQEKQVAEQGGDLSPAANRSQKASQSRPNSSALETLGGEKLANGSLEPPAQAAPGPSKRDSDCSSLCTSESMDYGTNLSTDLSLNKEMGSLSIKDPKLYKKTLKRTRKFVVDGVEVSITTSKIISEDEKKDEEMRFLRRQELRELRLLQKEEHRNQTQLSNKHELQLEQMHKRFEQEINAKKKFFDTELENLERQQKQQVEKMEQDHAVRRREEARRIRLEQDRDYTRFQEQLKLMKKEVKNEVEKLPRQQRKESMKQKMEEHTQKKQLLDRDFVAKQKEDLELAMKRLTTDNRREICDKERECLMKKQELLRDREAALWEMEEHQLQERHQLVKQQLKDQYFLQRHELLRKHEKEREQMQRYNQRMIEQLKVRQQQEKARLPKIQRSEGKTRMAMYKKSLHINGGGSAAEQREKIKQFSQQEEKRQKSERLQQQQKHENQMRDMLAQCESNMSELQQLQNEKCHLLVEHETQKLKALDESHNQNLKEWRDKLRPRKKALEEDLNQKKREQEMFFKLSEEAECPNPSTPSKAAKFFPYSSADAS
Phosphatidylinositol 4-phosphate 3-kinase C2 domain-containing subunit alpha (Homo sapiens), sequence (O00443 whole entry, the tested form may be a part): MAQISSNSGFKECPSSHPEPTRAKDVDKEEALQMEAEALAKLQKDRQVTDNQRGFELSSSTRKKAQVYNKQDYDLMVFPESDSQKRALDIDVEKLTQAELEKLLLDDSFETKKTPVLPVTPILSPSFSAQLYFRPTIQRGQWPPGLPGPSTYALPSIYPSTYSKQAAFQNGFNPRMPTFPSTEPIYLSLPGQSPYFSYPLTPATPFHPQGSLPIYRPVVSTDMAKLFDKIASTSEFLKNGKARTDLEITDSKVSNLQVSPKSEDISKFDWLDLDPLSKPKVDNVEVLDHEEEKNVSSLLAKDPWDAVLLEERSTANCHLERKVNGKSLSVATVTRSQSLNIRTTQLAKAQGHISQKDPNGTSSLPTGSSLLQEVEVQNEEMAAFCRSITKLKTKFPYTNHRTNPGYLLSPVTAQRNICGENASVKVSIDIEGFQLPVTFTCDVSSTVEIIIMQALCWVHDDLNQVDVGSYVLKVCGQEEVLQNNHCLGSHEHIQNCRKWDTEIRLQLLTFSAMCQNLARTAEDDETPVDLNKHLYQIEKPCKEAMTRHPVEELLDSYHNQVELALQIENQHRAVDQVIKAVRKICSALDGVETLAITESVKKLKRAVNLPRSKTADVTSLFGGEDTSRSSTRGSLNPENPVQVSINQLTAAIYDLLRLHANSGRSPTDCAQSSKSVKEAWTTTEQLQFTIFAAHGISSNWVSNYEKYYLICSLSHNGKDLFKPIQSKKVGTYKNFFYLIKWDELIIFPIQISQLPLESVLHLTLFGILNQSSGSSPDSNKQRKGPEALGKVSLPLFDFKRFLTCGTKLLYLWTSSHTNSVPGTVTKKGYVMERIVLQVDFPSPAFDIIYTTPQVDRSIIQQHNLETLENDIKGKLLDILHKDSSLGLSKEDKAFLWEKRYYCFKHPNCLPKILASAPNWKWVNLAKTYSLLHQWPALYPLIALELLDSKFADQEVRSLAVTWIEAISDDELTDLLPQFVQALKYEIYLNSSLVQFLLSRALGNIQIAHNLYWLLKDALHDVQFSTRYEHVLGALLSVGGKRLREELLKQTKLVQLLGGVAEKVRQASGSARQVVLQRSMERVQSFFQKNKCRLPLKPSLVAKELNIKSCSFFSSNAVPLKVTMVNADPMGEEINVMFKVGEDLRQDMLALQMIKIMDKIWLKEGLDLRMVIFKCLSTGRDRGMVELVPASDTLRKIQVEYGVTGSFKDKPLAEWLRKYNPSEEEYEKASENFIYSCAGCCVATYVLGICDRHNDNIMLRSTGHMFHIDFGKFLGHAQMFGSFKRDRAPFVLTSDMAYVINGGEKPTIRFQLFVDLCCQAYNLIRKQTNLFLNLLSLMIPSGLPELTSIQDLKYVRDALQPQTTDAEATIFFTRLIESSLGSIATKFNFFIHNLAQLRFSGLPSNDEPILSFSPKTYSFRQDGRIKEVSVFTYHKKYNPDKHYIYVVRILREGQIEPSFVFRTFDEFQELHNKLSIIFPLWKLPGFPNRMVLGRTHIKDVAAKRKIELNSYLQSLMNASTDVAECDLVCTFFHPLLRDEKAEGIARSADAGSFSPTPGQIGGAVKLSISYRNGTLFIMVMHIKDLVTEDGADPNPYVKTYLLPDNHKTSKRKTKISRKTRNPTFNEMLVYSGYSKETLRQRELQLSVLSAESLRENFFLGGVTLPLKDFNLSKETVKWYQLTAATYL

% of inhibition [4]: -2.62%
% of inhibition [5]: -97%
SMILES: CC[C@@H]1[C@H](F)C(=O)N[C@@H]1COc1nccc2cc(C(N)=O)c(OC)cc12 [ZIMLOVISERTIB]

% of control ([7]; at 1 µM): 95%
% of control ([7]; at 5 µM): 80%
SMILES: C=CC(=O)Nc1cccc(C(=O)Nc2ccc(Nc3cc(-c4[nH]c(SC)nc4C)ccn3)cc2)c1

% of inhibition [9]: -26.4%
SMILES: Cn1cc(-n2cnc3c(NCc4nc5cc(Cl)c(Cl)cc5[nH]4)nc(N4CCOCC4)nc32)cn1

Further lines, the molecule ahead of its results:

SMILES: O[C@H]1CC[C@H](Nc2ncc3nc(Nc4c(F)cc(F)cc4F)n([C@H]4CCOC4)c3n2)CC1
% of control [1]: 94%

SMILES: CNC(=O)Nc1ccc(-c2nc(N3CC4CCC(C3)O4)c3cnn(C4CCC5(CC4)OCCO5)c3n2)cc1
% of inhibition [2]: 1%

SMILES: N#Cc1cccc(-c2c[nH]c3ncnc(N4CCOCC4)c23)c1
% of inhibition [3]: 3%

SMILES: Cc1cc(CN)cc(C)c1-c1ncn(C)c1-c1cncn1C
dTM [6]: -2.24 K

SMILES: O=C(NOC[C@H](O)CO)c1ccc(F)c(F)c1Nc1ccc(I)cc1F
% of control [8]: 100%
